“And” between values parts separate entries of the source, which are not always exact repeats. Equal values may be shown once. Toxic doses and inconclusive results are not listed.
System: BDF1 mice, P388 leukemia ip, median survival T/C
Assay: NCI In Vivo Anticancer Drug Screen. Data for tumor model P388 Leukemia (intraperitoneal) in B6D2F1 (BDF1) mice
Conditions: endpoint: median survival time, higher = longer survival
In short: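 Vehicle-dosed animals serve as the reference; survival of compound-dosed, tumour-implanted mice is divided by it.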

[1] = dose: 50.0 mg/kg/injection, schedule: Q01DX009 (ip), vehicle: Klucel (hydroxypropylcellulose) (HPC)
[2] = dose: 100.0 mg/kg/injection, schedule: Q01DX009 (ip), vehicle: Klucel (hydroxypropylcellulose) (HPC)
[3] = dose: 100.0 mg/kg/injection, schedule: Q04DX003 (ip), vehicle: Klucel (hydroxypropylcellulose) (HPC)
[4] = dose: 200.0 mg/kg/injection, schedule: Q01DX009 (ip), vehicle: Klucel (hydroxypropylcellulose) (HPC)
[5] = dose: 200.0 mg/kg/injection, schedule: Q04DX003 (ip), vehicle: Klucel (hydroxypropylcellulose) (HPC)
[6] = dose: 400.0 mg/kg/injection, schedule: Q04DX003 (ip), vehicle: Klucel (hydroxypropylcellulose) (HPC)
[7] = dose: 100.0 mg/kg/injection, schedule: Q01DX009 (ip), vehicle: saline
[8] = dose: 100.0 mg/kg/injection, schedule: Q04DX003 (ip), vehicle: saline
[9] = dose: 200.0 mg/kg/injection, schedule: Q01DX009 (ip), vehicle: saline
[10] = dose: 200.0 mg/kg/injection, schedule: Q04DX003 (ip), vehicle: saline
[11] = dose: 400.0 mg/kg/injection, schedule: Q01DX009 (ip), vehicle: saline
[12] = dose: 400.0 mg/kg/injection, schedule: Q04DX003 (ip), vehicle: saline
[13] = dose: 100.0 mg/kg/injection, schedule: Q01DX009 (ip), vehicle: saline with Tween-80
[14] = dose: 200.0 mg/kg/injection, schedule: Q01DX009 (ip), vehicle: saline with Tween-80
[15] = dose: 400.0 mg/kg/injection, schedule: Q01DX009 (ip), vehicle: saline with Tween-80
[16] = dose: 50.0 mg/kg/injection, schedule: Q04DX003 (ip), vehicle: saline
[17] = dose: 25.0 mg/kg/injection, schedule: Q01DX009 (ip), vehicle: saline
[18] = dose: 50.0 mg/kg/injection, schedule: Q01DX009 (ip), vehicle: saline
[19] = dose: 12.5 mg/kg/injection, schedule: Q01DX009 (ip), vehicle: Klucel (hydroxypropylcellulose) (HPC)
[20] = dose: 25.0 mg/kg/injection, schedule: Q01DX009 (ip), vehicle: Klucel (hydroxypropylcellulose) (HPC)
[21] = dose: 400.0 mg/kg/injection, schedule: Q01DX009 (ip), vehicle: Klucel (hydroxypropylcellulose) (HPC)
[22] = dose: 50.0 mg/kg/injection, schedule: Q04DX003 (ip), vehicle: Klucel (hydroxypropylcellulose) (HPC)

Compound: Nc1nc(N)c2cc(S(=O)(=O)c3ccc4ccccc4c3)ccc2n1
- T/C [1]: 90 % of control
- T/C [2]: 109 % of control
- T/C [3]: 90 % of control
- T/C [4]: 95 % of control
- T/C [5]: 104 % of control
- T/C [6]: 104 % of control

Compound: CC(C)(C)OC(=O)NO
- T/C [7]: 105 % of control
- T/C [8]: 91 % of control
- T/C [9]: 95 % of control
- T/C [10]: 95 % of control
- T/C [11]: 90 % of control
- T/C [12]: 95 % of control

Compound: Cc1c2ccncc2c(C)c2c1[nH]c1ccccc12
- T/C (dose: 10.0 mg/kg/injection, schedule: Q01DX010 (ip), vehicle: saline): 163 % of control
- T/C (dose: 14.4 mg/kg/injection, schedule: Q04DX003 (ip), vehicle: clinical formulation): 117 % of control
- T/C (dose: 15.0 mg/kg/injection, schedule: Q01DX009 (ip), vehicle: water): 175 % of control
- T/C (dose: 15.0 mg/kg/injection, schedule: Q04DX003 (ip), vehicle: water): 166 % of control
- T/C (dose: 20.0 mg/kg/injection, schedule: Q01DX010 (ip), vehicle: saline): 159 % of control and 179 % of control
- T/C (dose: 21.6 mg/kg/injection, schedule: Q04DX003 (ip), vehicle: water): 172 % of control and 176 % of control
- T/C (dose: 24.0 mg/kg/injection, schedule: Q04DX003 (ip), vehicle: clinical formulation): 184 % of control
- T/C (dose: 30.0 mg/kg/injection, schedule: Q04DX003 (ip), vehicle: water): 208 % of control
- T/C (dose: 36.0 mg/kg/injection, schedule: Q04DX003 (ip), vehicle: water): 235 % of control and 215 % of control
- T/C (dose: 40.0 mg/kg/injection, schedule: Q01DX010 (ip), vehicle: saline): 150 % of control
- T/C (dose: 40.0 mg/kg/injection, schedule: Q04DX003 (ip), vehicle: clinical formulation): 208 % of control
- T/C (dose: 100.0 mg/kg/injection, schedule: Q04DX002 (ip), vehicle: Klucel (hydroxypropylcellulose) (HPC)): 200 % of control
- T/C (dose: 120.0 mg/kg/injection, schedule: Q04DX003 (ip), vehicle: water): 100 % of control
- T/C (dose: 200.0 mg/kg/injection, schedule: Q04DX002 (ip), vehicle: Klucel (hydroxypropylcellulose) (HPC)): 190 % of control
- T/C (dose: 400.0 mg/kg/injection, schedule: Q04DX002 (ip), vehicle: Klucel (hydroxypropylcellulose) (HPC)): 90 % of control

Compound: O=C(/C=C/c1ccccc1)c1cccc(Br)c1
- T/C [13]: 91 % of control
- T/C (dose: 100.0 mg/kg/injection, schedule: Q04DX003 (ip), vehicle: saline with Tween-80): 109 % of control
- T/C [14]: 98 % of control
- T/C (dose: 200.0 mg/kg/injection, schedule: Q04DX003 (ip), vehicle: saline with Tween-80): 104 % of control
- T/C [15]: 119 % of control
- T/C (dose: 400.0 mg/kg/injection, schedule: Q04DX003 (ip), vehicle: saline with Tween-80): 104 % of control

Compound: CCC[N+](CCC)(CCC)CCC.N#CN=C([SH2+])[SH2+].N#CN=C([SH2+])[SH2+].[Pt+2]
- T/C [16]: 100 % of control

Compound: NC(N)=N/N=C/C(Cl)Cl
- T/C [17]: 95 % of control and 100 % of control
- T/C [18]: 104 % of control
- T/C [7]: 100 % of control and 109 % of control

Compound: O=C(NNC(=O)OCc1ccccc1)OCc1ccccc1
- T/C [1]: 96 % of control
- T/C [2]: 96 % of control
- T/C [3]: 90 % of control
- T/C [4]: 92 % of control
- T/C [5]: 109 % of control

Compound: C#CCOCC1CNC(=S)O1 (stereo not drawn)
- T/C [13]: 100 % of control
- T/C [14]: 100 % of control
- T/C [15]: 100 % of control

Compound: Nc1cccc2c1C(=O)c1cccc(NC(=O)c3ccccc3)c1C2=O
- T/C (dose: 6.25 mg/kg/injection, schedule: Q01DX009 (ip), vehicle: Klucel (hydroxypropylcellulose) (HPC)): 104 % of control
- T/C [19]: 109 % of control
- T/C [20]: 116 % of control
- T/C [1]: 113 % of control
- T/C [2]: 115 % of control
- T/C [4]: 122 % of control
- T/C [21]: 151 % of control

Compound: Brc1cc(Br)c(I)c(Br)c1
- T/C (dose: 100.0 mg/kg/injection, schedule: Q01DX009 (ip), vehicle: other): 105 % of control
- T/C (dose: 200.0 mg/kg/injection, schedule: Q01DX009 (ip), vehicle: other): 100 % of control
- T/C (dose: 400.0 mg/kg/injection, schedule: Q01DX009 (ip), vehicle: other): 90 % of control

Compound: [NH-]S(=O)(=O)O.[NH-]S(=O)(=O)O.[NH2-].[NH2-].[Pt+4]
- T/C (dose: 10.0 mg/kg/injection, schedule: Q01DX009 (ip), vehicle: saline with Tween-80): 90 % of control
- T/C (dose: 10.0 mg/kg/injection, schedule: Q04DX003 (ip), vehicle: saline): 100 % of control
- T/C (dose: 20.0 mg/kg/injection, schedule: Q01DX009 (ip), vehicle: saline with Tween-80): 100 % of control
- T/C (dose: 20.0 mg/kg/injection, schedule: Q04DX003 (ip), vehicle: saline): 100 % of control
- T/C (dose: 40.0 mg/kg/injection, schedule: Q01DX009 (ip), vehicle: saline with Tween-80): 90 % of control
- T/C (dose: 40.0 mg/kg/injection, schedule: Q04DX003 (ip), vehicle: saline): 108 % of control

Compound: C/C(=N\[N+](C)(C)C)c1cccc(C)n1
- T/C [17]: 100 % of control
- T/C (dose: 25.0 mg/kg/injection, schedule: Q04DX003 (ip), vehicle: saline): 108 % of control
- T/C (dose: 33.0 mg/kg/injection, schedule: Q04DX003 (ip), vehicle: saline with Tween-80): 100 % of control
- T/C (dose: 33.0 mg/kg/injection, schedule: Q04DX003 (ip), vehicle: saline): 104 % of control
- T/C [18]: 95 % of control
- T/C (dose: 50.0 mg/kg/injection, schedule: Q04DX003 (ip), vehicle: saline with Tween-80): 100 % of control
- T/C [16]: 95 % of control
- T/C (dose: 75.0 mg/kg/injection, schedule: Q04DX003 (ip), vehicle: saline with Tween-80): 100 % of control
- T/C (dose: 75.0 mg/kg/injection, schedule: Q04DX003 (ip), vehicle: saline): 100 % of control
- T/C [8]: 108 % of control

Compound: CCOC(=O)C(C)C(=O)Cc1cc(OC)c(C)cc1Br (stereo not drawn)
- T/C [22]: 100 % of control
- T/C [2]: 110 % of control
- T/C [3]: 91 % of control
- T/C [4]: 105 % of control
- T/C [5]: 95 % of control
- T/C [21]: 100 % of control
- T/C [6]: 95 % of control

Compound: C[C@]12CCC(=O)C=C1CC[C@@H]1[C@@H]2[C@@H](O)C[C@@]2(C)[C@H]1CC[C@]2(O)C(=O)COC(=O)CCC1CCCC1
- T/C [19]: 118 % of control
- T/C [20]: 113 % of control
- T/C [1]: 100 % of control
- T/C [3]: 123 % of control
- T/C [5]: 109 % of control
- T/C [6]: 109 % of control

Compound: CC(=O)Nc1ccc(C(=O)O)c([N+](=O)[O-])c1
- T/C [17]: 86 % of control
- T/C [18]: 92 % of control and 106 % of control
- T/C [7]: 91 % of control and 100 % of control
- T/C [8]: 98 % of control
- T/C [9]: 106 % of control
- T/C [10]: 108 % of control
- T/C [11]: 101 % of control
- T/C [12]: 96 % of control

Compound: Clc1c(CI)ccc(CI)c1Cl
- T/C (dose: 11.0 mg/kg/injection, schedule: Q04DX003 (ip), vehicle: Klucel (hydroxypropylcellulose) (HPC)): 100 % of control
- T/C (dose: 12.5 mg/kg/injection, schedule: Q01DX009 (ip), vehicle: saline sonified): 113 % of control
- T/C (dose: 16.5 mg/kg/injection, schedule: Q01DX009 (ip), vehicle: saline with Tween-80): 90 % of control
- T/C (dose: 16.5 mg/kg/injection, schedule: Q04DX003 (ip), vehicle: Klucel (hydroxypropylcellulose) (HPC)): 100 % of control
- T/C (dose: 16.5 mg/kg/injection, schedule: Q04DX003 (ip), vehicle: saline sonified): 122 % of control
- T/C (dose: 25.0 mg/kg/injection, schedule: Q01DX009 (ip), vehicle: saline with Tween-80): 90 % of control
- T/C (dose: 25.0 mg/kg/injection, schedule: Q04DX003 (ip), vehicle: Klucel (hydroxypropylcellulose) (HPC)): 109 % of control
- T/C (dose: 37.5 mg/kg/injection, schedule: Q04DX003 (ip), vehicle: Klucel (hydroxypropylcellulose) (HPC)): 109 % of control
- T/C (dose: 50.0 mg/kg/injection, schedule: Q01DX009 (ip), vehicle: saline sonified): 118 % of control
- T/C [22]: 110 % of control
- T/C [3]: 120 % of control
